Measurements reported in patent publication US8227604B2, “Hybrid 2-aminotetralin and aryl-substituted piperazine compounds and their use in altering CNS activity” (Wayne State University, priority 2001, dated 2012).

Legend:
5HT1A receptor = molecular target: T1, 5HT1A receptor (Homo sapiens, UniProt P08908); experiment: Binding affinity at cloned human 5HT1A receptor, [3H]8-OH-DPAT (HA7 cells)
T1 construct: expressed in transfected cells; host or cells: HA7 cells
T1 sequence (P08908 1-422): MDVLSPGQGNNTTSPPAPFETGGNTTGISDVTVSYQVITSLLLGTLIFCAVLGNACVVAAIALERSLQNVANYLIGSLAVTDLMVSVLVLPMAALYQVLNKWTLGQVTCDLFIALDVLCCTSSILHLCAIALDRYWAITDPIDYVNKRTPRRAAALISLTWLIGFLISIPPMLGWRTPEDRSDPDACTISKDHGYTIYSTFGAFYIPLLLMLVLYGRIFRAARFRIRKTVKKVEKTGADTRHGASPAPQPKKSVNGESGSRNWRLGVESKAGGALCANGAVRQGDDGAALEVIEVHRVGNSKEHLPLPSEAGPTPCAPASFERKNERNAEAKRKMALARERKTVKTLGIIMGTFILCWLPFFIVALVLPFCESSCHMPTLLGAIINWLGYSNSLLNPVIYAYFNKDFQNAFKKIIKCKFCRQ
Protocol: HA7 cells (human receptor) are grown to confluence in DMEM containing 10% fetal calf serum, 0.05% penicillin-streptomycin (pen-strep), and […] of G418. The cells are scraped from the 100 by 20 mm plates and centrifuged at 500·G for 5 min. The pellet is homogenized in 50 mM Tris-HCl, pH 7.7, with a polytron, centrifuged at 27,000·G and resuspended at 10 mg protein/ml in the same buffer. The homogenate is then stored at −70° C. in 1-ml aliquots.
The thawed cells are washed once and resuspended at 10 mg protein/80 ml in 25 mM Tris-HCl containing 100 μM of ascorbic acid and 10 mM of nialamide at pH 7.4. The assay is performed in triplicate in a 96-well plate. To 100 μl of [^3H]8-OH-DPAT (0.5 nM final conc), […] of test compound or buffer and 0.8 ml of cell homogenate (0.1 mg protein/well) is added to each well by a Tomtec Quadra 96. Nonspecific binding is defined using 1 μM dihydroergotamine. The plates are incubated at 25° C. for 60 min, then filtered. The incubation is terminated by rapid filtration through glass fiber filter paper on a Tomtec cell harvester. The filters are washed four times with ice-cold 50 mM Tris-HCl, pH 7.7, dried overnight, bagged with 10 ml scintillation cocktail before counting for 2 min. on a Wallac Betaplate 1205 liquid scintillation counter.

5HT2C receptor = molecular target: T2, 5HT2C receptor (Homo sapiens, UniProt P28335); experiment: Binding affinity at cloned human 5HT2C receptor, [3H]Mesulergine
T2 construct: expressed in transfected cells
T2 sequence (P28335 33-458): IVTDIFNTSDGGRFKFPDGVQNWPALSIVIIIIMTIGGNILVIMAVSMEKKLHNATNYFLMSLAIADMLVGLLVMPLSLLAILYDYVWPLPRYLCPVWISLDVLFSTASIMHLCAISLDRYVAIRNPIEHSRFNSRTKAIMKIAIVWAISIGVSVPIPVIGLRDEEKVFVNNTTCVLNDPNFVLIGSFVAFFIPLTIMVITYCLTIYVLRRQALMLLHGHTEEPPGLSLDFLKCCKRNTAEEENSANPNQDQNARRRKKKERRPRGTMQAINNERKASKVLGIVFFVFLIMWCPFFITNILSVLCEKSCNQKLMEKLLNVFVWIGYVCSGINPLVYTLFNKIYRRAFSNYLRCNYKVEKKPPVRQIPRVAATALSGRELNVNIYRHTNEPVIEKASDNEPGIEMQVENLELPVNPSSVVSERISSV

D3 receptor [1] = molecular target: T3, D3 receptor (Homo sapiens, UniProt P35462); experiment: Binding affinity at cloned human D3 receptor, [3H]YM-09151-2 (CHOp-D3 cells); set-up: expressed in transfected cells; host or cells: CHOp-D3 cells; conditions: for Ki: cloned human D3; for D2/D3: ratio of Ki D2 to Ki D3, [3H]YM-09151-2 protocol of Table 4
T3 sequence (P35462 whole entry): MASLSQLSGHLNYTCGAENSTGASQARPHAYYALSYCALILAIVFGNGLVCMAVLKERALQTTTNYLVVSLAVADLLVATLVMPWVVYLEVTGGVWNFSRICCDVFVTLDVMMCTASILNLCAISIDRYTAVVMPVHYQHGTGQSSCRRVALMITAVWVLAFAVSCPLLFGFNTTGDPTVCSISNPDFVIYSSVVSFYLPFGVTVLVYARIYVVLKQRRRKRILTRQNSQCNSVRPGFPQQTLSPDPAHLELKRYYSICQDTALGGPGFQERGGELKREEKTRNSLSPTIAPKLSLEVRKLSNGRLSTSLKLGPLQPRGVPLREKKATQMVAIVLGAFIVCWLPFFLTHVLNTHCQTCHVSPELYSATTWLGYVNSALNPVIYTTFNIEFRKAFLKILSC
Protocol: (§1) CHOp-cells (human receptors) are grown to confluence in a minimum essential medium (α MEM) containing 10% fetal calf serum, 0.05% pen-strep, and 600 μg/ml of G418. The cells are scraped from the 100 by 20 mm plates and centrifuged at 500. g for 5 min. The pellet is homogenized by polytron in 50 mM Tris-HCl, pH 7.7, and centrifuged at 27,000·G for 12 min. The pellet is resuspended in 50 mM Tris, D2 at 5 mg protein/ml, D3 at 1 mg protein/ml, and stored at −70° C. in 1-ml aliquots.
(§2) On the day of the experiment, CHOp-D2 or CHOp-D3 cells are thawed, resuspended in 50 mM Tris, and centrifuged at 27,000·G for 12 min. The pellet is then resuspended at 5 mg protein/80 ml (D2) and 1 mg protein/80 ml (D3) in 50 mM Tris containing 120 mM of NaCl, 5 mM of KCl, 1.5 mM of CaCl2, 4 mM of MgCl2, and 1 mM of EDTA, pH 7.4. […] Nonspecific binding is determined with 1 mM of chlorpromazine. The plates are incubated at 25° C. for 60 min before filtration and counted as usual. The filters are soaked in 0.1% PEI before filtering.

D2L receptor = molecular target: T4, D2L receptor (Homo sapiens, UniProt P14416); experiment: Inhibition constants for binding to cloned D2L receptor expressed in HEK cells, [3H]spiperone
T4 construct: expressed in transfected cells; host or cells: HEK cells
T4 sequence (P14416 whole entry): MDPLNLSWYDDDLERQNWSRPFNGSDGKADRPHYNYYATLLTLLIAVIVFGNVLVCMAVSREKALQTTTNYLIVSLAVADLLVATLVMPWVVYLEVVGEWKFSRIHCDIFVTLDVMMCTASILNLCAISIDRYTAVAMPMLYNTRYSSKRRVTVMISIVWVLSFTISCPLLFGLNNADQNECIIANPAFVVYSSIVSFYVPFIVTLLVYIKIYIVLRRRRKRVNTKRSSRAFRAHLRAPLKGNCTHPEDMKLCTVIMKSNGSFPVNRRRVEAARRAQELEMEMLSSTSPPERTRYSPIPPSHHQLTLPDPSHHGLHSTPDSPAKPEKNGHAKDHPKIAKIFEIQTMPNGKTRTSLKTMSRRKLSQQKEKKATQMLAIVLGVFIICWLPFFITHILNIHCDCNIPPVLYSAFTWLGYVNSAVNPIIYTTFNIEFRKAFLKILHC
Protocol: (§3) Inhibition constants for binding to cloned D2L and D3 receptors expressed in HEK cells by displacing [^3H] spiperone were measured for several compounds.

D2 receptor [2] = molecular target: T5, D2 receptor (Homo sapiens, UniProt P14416); experiment: Agonist potency by [3H]thymidine incorporation (mitogenesis), D2; assay type: cell-based; conditions: [3H]thymidine incorporation; for Emax: >80% full agonist, read-out: D2 % Maxm Stim
T5 construct: expressed in transfected cells
T5 sequence (P14416 whole entry): as above
Protocol: (§4) Potential as domaminergenic agonists was assayed by ^3H-thymidine incorporation by standard techniques.
(§5) The EC50 values thus indicate intrinsic activities or functional activities of these compounds. The value of % maximum stimulation indicates whether a compound is a partial agonist or full agonist. Generally, a value greater than 80% is considered as a full agonist and anything less than 80% is considered as a partial agonist.

D2 receptor [3] = molecular target: T5, D2 receptor; experiment: Binding affinity at cloned human D2 receptor, [3H]YM-09151-2 (CHOp-D2 cells)
Protocol: as §1, §2

5HT2A receptor = molecular target: T6, 5HT2A receptor (Homo sapiens, UniProt P28223); experiment: Binding affinity at cloned human 5HT2A receptor, [3H]Ketanserin
T6 construct: expressed in transfected cells
T6 sequence (P28223 whole entry): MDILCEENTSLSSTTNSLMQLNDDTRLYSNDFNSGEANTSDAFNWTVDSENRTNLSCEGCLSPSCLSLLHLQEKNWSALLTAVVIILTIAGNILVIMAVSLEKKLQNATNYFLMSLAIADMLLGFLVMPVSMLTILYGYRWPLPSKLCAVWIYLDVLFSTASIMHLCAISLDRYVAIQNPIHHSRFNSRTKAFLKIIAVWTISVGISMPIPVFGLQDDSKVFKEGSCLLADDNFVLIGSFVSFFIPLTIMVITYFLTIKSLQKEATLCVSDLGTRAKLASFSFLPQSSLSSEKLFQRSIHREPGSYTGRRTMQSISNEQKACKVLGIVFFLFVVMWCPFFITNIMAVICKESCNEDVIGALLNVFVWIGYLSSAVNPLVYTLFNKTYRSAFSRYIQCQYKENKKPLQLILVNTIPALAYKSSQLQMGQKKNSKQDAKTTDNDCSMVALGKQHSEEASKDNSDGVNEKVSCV

D3 receptor [4] = molecular target: T3, D3 receptor; experiment: Agonist potency by [3H]thymidine incorporation (mitogenesis), D3; assay type: cell-based; set-up: expressed in transfected cells; host or cells: CHOp-D3 cells; conditions: [3H]thymidine incorporation; for Emax: >80% full agonist, read-out: D3 % Maxm Stim
Protocol: as §4, §5

D1 receptor = molecular target: T7, D1 receptor (Homo sapiens, UniProt P21728); experiment: Binding affinity at cloned human D1 receptor, [3H]SCH23390 (LHD1 cells)
T7 construct: expressed in transfected cells; host or cells: LHD1 cells
T7 sequence (P21728 whole entry): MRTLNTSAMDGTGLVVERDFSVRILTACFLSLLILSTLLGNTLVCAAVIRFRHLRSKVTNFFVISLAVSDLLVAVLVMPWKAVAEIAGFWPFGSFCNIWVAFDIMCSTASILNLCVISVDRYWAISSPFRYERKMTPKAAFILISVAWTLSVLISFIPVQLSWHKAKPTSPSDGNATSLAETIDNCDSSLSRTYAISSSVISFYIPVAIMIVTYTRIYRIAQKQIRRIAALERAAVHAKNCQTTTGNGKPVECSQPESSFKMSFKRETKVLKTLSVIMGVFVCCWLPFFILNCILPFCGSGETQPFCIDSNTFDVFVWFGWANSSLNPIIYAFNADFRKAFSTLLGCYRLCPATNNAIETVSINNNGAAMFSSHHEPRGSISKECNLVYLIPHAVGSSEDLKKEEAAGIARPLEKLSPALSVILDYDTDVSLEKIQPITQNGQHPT
Protocol: LHD1 cells (human receptor) are grown and prepared as described for the HA7 cells as described hereafter. The final pellet is resuspended at 5 mg protein/80 ml in 50 mM Tris-HCl containing 120 mM of NaCl, 5 mM of KCl, 2 mM of CaCl2, and 1 mM of MgCl2, pH 7.4. To wells containing 100 μl of test drug or buffer and […] of [^3H]SCH 23390 (0.18 nM final conc.), is added 0.8 ml of cell homogenate (0.05 mg protein/well), and the plates are incubated at […] for 60 min. Nonspecific binding is determined with 1 μM of SCH 23390.

D3 receptor [5] = molecular target: T3, D3 receptor; experiment: Inhibition constants for binding to cloned D3 receptor expressed in HEK cells, [3H]spiperone; conditions: D3 expressed in HEK cells
Protocol: as §3

D3 receptor [6] = molecular target: T3, D3 receptor; experiment: Binding affinity at cloned human D3 receptor, [3H]Spiperone (Table 5); set-up: expressed in transfected cells; host or cells: CHOp-D3 cells; conditions: for activity at the D3 receptor: Table 5; for Ki: cloned human D3, Table 5
D2 receptor [7] = molecular target: T5, D2 receptor; experiment: Binding affinity at cloned human D2 receptor, [3H]Spiperone (Table 5); conditions: for affinity for the D2 receptor: Table 5; for Ki: cloned human D2, Table 5

Compound | Ki (5HT1A receptor) [nM] | Ki (5HT2C receptor) [nM] | Ki (D3 receptor [1]) [nM] | D2/D3 (D3 receptor [1]) | Ki (D2L receptor) [nM] | EC50 (D2 receptor [2]) [nM] | Emax (D2 receptor [2]) [%] | Ki (D2 receptor [3]) [nM] | Ki (5HT2A receptor) [nM] | EC50 (D3 receptor [4]) [nM] | Emax (D3 receptor [4]) [%] | Ki (D1 receptor) [nM] | Ki (D3 receptor [5]) [nM] | selectivity for D3 relative to the standard 7-OH-DPAT (D3 receptor [1]; protocol used in Table 4) | activity at the D3 receptor (D3 receptor [6]) | Ki (D3 receptor [6]) [nM] | affinity for the D2 receptor (D2 receptor [7]) | Ki (D2 receptor [7]) [nM]
C#CCN(CCN1CCN(c2ccccc2)CC1)C1CCc2ccc(O)cc2C1 (centres unmarked) [Compound 12a, 7-Hydroxy-1-2-[N-propargyl-(N-(4-phenylpiperazin-1-yl)-ethyl)amino]tetralin] | 27.6 | 2690 | 23.5 | 2.8 | 245 ± 26 | 6.18 ± 0.18 | 87.2 ± 2.16 | 65.5 | 161 | 1.25 ± 0.08 | 94.5 ± 6.17 | 663 | 14.2 ± 1.7 |  |  |  |  | 
CCCN(CCN1CCN(c2ccccc2)CC1)C1CCc2ccc(O)cc2C1 (centres unmarked) [Compound 15a, 7-Hydroxy-2-[N-propyl-(N-(4-phenylpiperazin-1-yl)-ethyl)amino]tetralin] | 21.4 | > 10000 | 3.2 | 25 | 213 ± 26 | 1.59 ± 0.06 | 105 ± 11.3 | 75.5 | 1540 | 0.97 ± 0.02 | 84.6 ± 10.8 | > 10000 | 1.75 ± 0.34 | more than two fold |  |  |  | 
CCCN(CCCCN1CCN(c2cccc(Cl)c2Cl)CC1)C1CCc2ccc(O)cc2C1 (centres unmarked) [Compound 19a, 7-Hydroxy-2-[N-propyl-(N-(4-(2,3-dichlorophenyl)-piperazin-1-yl)-butyl)amino]tetralin] | 40.6 | 639 | 2.66 | 15 | 8.78 ± 0.81 | 8.31 ± 0.69 | 80.1 ± 8.15 | 31.5 | 356 | 6.49 ± 2.46 | 85.7 ± 1.19 | 4060 | 2.26 ± 0.5 |  |  |  |  | 
C#CCN(CCCCN1CCN(c2cccc(Cl)c2Cl)CC1)C1CCc2ccc(O)cc2C1 (centres unmarked) [Compound 19b, 7-Hydroxy-2-[N-propargyl-(N-(4-(2,3-dichlorophenyl)-piperazin-1-yl)-butyl)amino]tetralin] | 64.4 | 264 | 12.7 | 2.3 | 7.37 ± 0.27 | 11.8 ± 1.84 | 85.7 ± 9.15 | 28.1 | 160 | 3.08 ± 1.09 | 90.3 ± 15.5 | 1720 | 3.59 ± 0.58 |  |  |  |  | 
CCCN(CCc1ccc(N)cc1)CCN1CCN(c2ccccc2)CC1 [Compound 29a, 4-(2-{[2-(4-Phenyl-piperazin-1-yl)-ethyl]-propyl-amino}-ethyl)-phenylamine] |  |  |  |  |  |  |  |  |  |  |  |  |  |  | some activity | 1150 | exceptionally low affinity | 25600
CCCN(CCc1cccc(N)c1)CCN1CCN(c2ccccc2)CC1 [Compound 29b, 3-(2-{[2-(4-Phenyl-piperazin-1-yl)-ethyl]-propyl-amino}-ethyl)-phenylamine] |  |  |  |  |  |  |  |  |  |  |  |  |  |  | some activity | 1480 | exceptionally low affinity | 23500
CCCN(CCc1ccc(NS(=O)(=O)c2ccc(Cl)cc2)cc1)CCN1CCN(c2ccccc2)CC1 [Compound 30a, 4-Chloro-N-[4-(2-{[2-(4-phenyl-piperazin-1-yl)-ethyl]-propyl-amino}-ethyl)-phenyl]-benzenesulfonamide] |  |  |  |  |  |  |  |  |  |  |  |  |  |  |  | 5.98 ± 0.7 |  | 702 ± 22
CCCN(CCc1cccc(NS(=O)(=O)c2ccc(Cl)cc2)c1)CCN1CCN(c2ccccc2)CC1 [Compound 30b, 4-Chloro-N-[3-(2-{[2-(4-phenyl-piperazin-1-yl)-ethyl]-propyl-amino}-ethyl)-phenyl]-benzenesulfonamide] |  |  |  |  |  |  |  |  |  |  |  |  |  |  |  | 36.8 ± 5.4 |  | 552 ± 31
